Laboratory results taken from patent publication US20260306460A1, “COMPOSITION FOR REMOVING AND INHIBITING SENESCENT CELLS, AND USES THEREOF” (LIFECEUTIX CO., LTD., priority 2023, published 2026).

Assays:
naturally aged mice [1] = experiment: Open field test in naturally aged mice, Example 15; format: in vivo, mouse; details: untreated aged = 100%; 5 days; doses as p16 mRNA
Description: (§1) In the same manner as in Example 7-1 of WO2023-085787 A1, naturally aged mice were administered LX-405 (5% DMSO in PBS solution, 10 mg/kg, intraperitoneal administration), LX-801 (PBS, 100 mg/kg, intraperitoneal administration), LX-1102 (0.5% CMC-Na solution, 100 mg/kg, oral administration), LX-1801 (PBS, 50 mg/kg, intraperitoneal administration), LX-2101 (0.5% CMC-Na solution, 10 mg/kg, intraperitoneal administration), and LX-3403 (mouse anti-PD-1 antibody (BioXcell), 100 μg, intraperitoneal administration) for 5 days under the following conditions. The control group was administered only the solution in the same volume. After drug administration was completed, the method described in each Example below was performed. The mouse was sacrificed in the same manner as Example 7-2 and 7-6 of WO2023-085787 A1. Total RNA was extracted from liver tissue, and qRT-PCR was performed and analyzed using synthesized cDNA. […] The mRNA amounts of p16, MMP3, and IL6 after natural aging were induced were calculated as 100% and compared them with the mRNA amounts of p16, MMP3, and IL6 after treatment with the test compound. Furthermore, an open field test was performed to analyze aging-related frailty in mice using the same method as Example 7-7 of WO2023-085787 A1. […] The amount of activity evaluated after inducing aging was calculated as 100% and compared it with the amount of activity evaluated after treatment with the test compound.

naturally aged mice [2] = experiment: p16, MMP3, IL6 mRNA in liver of naturally aged mice (qRT-PCR), Example 15; format: in vivo, mouse; details: untreated aged = 100%, 5 days
Description: as §1

naturally aged mice [3] = experiment: Anti-aging evaluation in naturally aged mice, Example 31, Table 55; format: in vivo, mouse; details: for Femur Ctsk mRNA / Kidney Agtr1a mRNA / Liver IL6 mRNA / Liver MMP3 mRNA / Liver p16 mRNA / Open Field Test Time in Center: untreated = 100%; for Heart Sur2a mRNA / Joint Col2a1 mRNA / Skin Col1a1 mRNA / Skin SDF1 mRNA: untreated = 1.0; for Muscle Mass: untreated 0.64 g; for Fat Mass: untreated 0.82 g; for Cataract incidence: untreated 83%;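 for all read-outs here: Vehicle-dosed control mice received solution alone at matching volume, values compare test-compound-treated aged mice against that control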
[4] = tested on: carbon tetrachloride-induced liver fibrosis mice; experiment: Carbon tetrachloride-induced liver fibrosis mice, Example 31, Table 57; format: in vivo, mouse; details: CCl4-induced liver fibrosis mice, untreated = 100%
Outline: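 Mice with induced hepatic fibrosis received either the test compound or, as controls, an equal volume of vehicle solution alone. Once dosing ended, liver tissue was harvested and total RNA was isolated. cDNA was synthesized from this RNA, and quantitative RT-PCR was run on it to measure hepatic mRNA levels of the fibrosis- and senescence-related genes.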

[5] = tested on: HMGN1 secreted from senescent A549 cells; experiment: HMGN1 secretion (ELISA) from senescent A549 cancer cells, Example 12; format: cell-based, human; details: senescent untreated = 100%; 30 μM; 90 μM for LX-305, 905, 1302, 1601, 1603, 2003, 2702, 2901, 3106; 270 μM for LX-1103, 2005, 2007;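 note: A549 cells made senescent by doxorubicin exposure, with DMSO-treated cells serving as the non-senescent control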
Description: (§2) Cells were treated with doxorubicin or control (DMSO) and cultured.

senescent foreskin cells = experiment: Survival of senescent human cells treated with supernatant (secreted fluid) from death-induced cells, Example 13; format: cell-based; details: Table 8; supernatant from dying senescent cells treated at 30, 90 or 270 μM (as Example 11); senescent treated cells
[6] = tested on: bleomycin-induced pulmonary fibrosis mice; experiment: Bleomycin-induced pulmonary fibrosis mice, Example 31, Table 56; format: in vivo, mouse; details: untreated = 100%
Outline: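 After treatment with test compound or vehicle alone, lungs of bleomycin-induced pulmonary fibrosis mice were harvested. Total RNA extracted and gene expression quantified by qRT-PCR.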

senescent A549 cells = experiment: Viability of senescent A549 cancer cells (CellTiter-Glo), Example 12; format: cell-based, human; details: 0 μM = 100
Description: as §2
Cancer cells in which aging was induced by treatment with doxorubicin were treated with the test compound at designated concentrations and measured using the CellTiter-Glo Luminescent Cell Viability Assay (Promega).

senescent human cells = experiment: Viability of doxorubicin-induced senescent human cells (CellTiter-Glo), Example 11; format: cell-based; details: 0 μM = 100
Description: Cells in which senescence was induced by treatment with doxorubicin were treated with the test compound at designated concentrations and measured using the CellTiter-Glo Luminescent Cell Viability Assay (Promega).
After 3 days, cell viability was measured using CellTiter-Glo Luminescent Cell Viability Assay (Promega) or light microscopy.

[7] = tested on: HMGN1 secreted from senescent human cells; experiment: HMGN1 secretion (ELISA) from doxorubicin-induced senescent human cells, Example 11; format: cell-based; details: senescent untreated = 100%; 30 μM; 90 μM for LX-305, 1302, 1603, 2005, 2702, 2901, 3106; 270 μM for LX-1103, 2007

## Fc1ccc(-n2cc(CCCCN3CCC4(CC3)OCc3ccccc34)c3ccccc32)cc1 [LX-1102, Siramesine]
Naturally aged mice [1]
  Open Field Test Time in Center: 163 (±7.9) %
Naturally aged mice [2]; LX-405 10 mg/kg ip, LX-801 100 mg/kg ip, LX-1102 100 mg/kg po, LX-1801 50 mg/kg ip, LX-2101 10 mg/kg ip, LX-3403 100 μg ip
  p16 mRNA: 75.2 (±5.5) %
Naturally aged mice [2]; doses as p16 mRNA
  IL6 mRNA: 84.5 (±8.9) %
  MMP3 mRNA: 89.7 (±12.5) %
Naturally aged mice [3]
  Femur Ctsk mRNA: 62%
  Heart Sur2a mRNA: 1.8 fold
  Joint Col2a1 mRNA: 1.7 fold
  Kidney Agtr1a mRNA: 80%
  Liver IL6 mRNA: 74%
  Liver MMP3 mRNA: 71%
  Liver p16 mRNA: 58%
  Open Field Test Time in Center: 148%
  Skin Col1a1 mRNA: 2.5 Fold
  Skin SDF1 mRNA: 2.3 fold
  Muscle Mass: 0.65 g
  Fat Mass: 0.95 g
  Cataract incidence: 77%
[4]
  Liver p16 mRNA: 76 (±2.8) %
  Col1a1 mRNA: 64 (±4.7) %
[5]
  HMGN1: 324%
Senescent foreskin cells
  Survival: 52.9
[6]
  Lung p16 mRNA: 59 (±3.9) %
  Col1a1 mRNA: 68 (±4.1) %

## C[N+](C)(C)CCO.C[N+](C)(C)CCO.[SH-].[SH-].[S]=[Mo]=[S] [LX-2601]
Naturally aged mice [3]
  Femur Ctsk mRNA: 60%
  Heart Sur2a mRNA: 2.7 fold
  Joint Col2a1 mRNA: 2.3 fold
  Kidney Agtr1a mRNA: 73%
  Liver IL6 mRNA: 75%
  Liver MMP3 mRNA: 77%
  Liver p16 mRNA: 73%
  Open Field Test Time in Center: 166%
  Skin Col1a1 mRNA: 2.3 Fold
  Skin SDF1 mRNA: 1.9 fold
  Muscle Mass: 0.71 g
  Fat Mass: 0.88 g
  Cataract incidence: 80%
[4]
  Liver p16 mRNA: 75 (±3.2) %
  Col1a1 mRNA: 63 (±2.6) %
[5]
  HMGN1: 193%
Senescent foreskin cells
  Survival: 67.3
Senescent A549 cells; 1.1 μM
  Survival: 98.6%
Senescent A549 cells; 10 μM
  Survival: 59.7%
Senescent A549 cells; 30 μM
  Survival: 50.7%
Senescent A549 cells; […]
  Survival: 86%
[6]
  Lung p16 mRNA: 81 (±5.2) %
  Col1a1 mRNA: 67 (±3.0) %
Senescent human cells; 1.1 μM
  Survival: 95.2%
Senescent human cells; 10 μM
  Survival: 58.6%
Senescent human cells; 30 μM
  Survival: 21.8%
Senescent human cells; […]
  Survival: 81.8%
[7]
  HMGN1: 263%

## CCOC(=O)[C@@H](N)CCC(=O)N[C@@H](CSCc1ccccc1)C(=O)N[C@@H](C(=O)OCC)c1ccccc1 [LX-2602, Ezatiostat]
Naturally aged mice [3]
  Femur Ctsk mRNA: 59%
  Heart Sur2a mRNA: 1.7 fold
  Joint Col2a1 mRNA: 2.2 fold
  Kidney Agtr1a mRNA: 61%
  Liver IL6 mRNA: 80%
  Liver MMP3 mRNA: 64%
  Liver p16 mRNA: 71%
  Open Field Test Time in Center: 158%
  Skin Col1a1 mRNA: 2.5 Fold
  Skin SDF1 mRNA: 2.0 fold
  Muscle Mass: 0.69 g
  Fat Mass: 0.84 g
  Cataract incidence: 81%
[4]
  Liver p16 mRNA: 77 (±3.9) %
  Col1a1 mRNA: 82 (±3.7) %
[5]
  HMGN1: 283%
Senescent foreskin cells
  Survival: 69.5
Senescent A549 cells; 1.1 μM
  Survival: 102.7%
Senescent A549 cells; 10 μM
  Survival: 96%
Senescent A549 cells; 30 μM
  Survival: 32.5%
Senescent A549 cells; […]
  Survival: 107.4%
[6]
  Lung p16 mRNA: 68 (±3.5) %
  Col1a1 mRNA: 58 (±2.9) %
Senescent human cells; 1.1 μM
  Survival: 97.3%
Senescent human cells; 10 μM
  Survival: 76.9%
Senescent human cells; 30 μM
  Survival: 47.6%
Senescent human cells; […]
  Survival: 92.5%
[7]
  HMGN1: 208%

## CN(Cc1cnc2nc(N)nc(N)c2n1)c1ccc(C(=O)N[C@@H](CCC(=O)O)C(=O)O)cc1 [LX-2901, Methotrexate]
Naturally aged mice [3]
  Femur Ctsk mRNA: 51%
  Heart Sur2a mRNA: 1.7 fold
  Joint Col2a1 mRNA: 4.0 fold
  Kidney Agtr1a mRNA: 67%
  Liver IL6 mRNA: 55%
  Liver MMP3 mRNA: 72%
  Liver p16 mRNA: 64%
  Open Field Test Time in Center: 167%
  Skin Col1a1 mRNA: 1.7 Fold
  Skin SDF1 mRNA: 1.8 fold
  Muscle Mass: 0.69 g
  Fat Mass: 0.90 g
  Cataract incidence: 59%
[4]
  Liver p16 mRNA: 59 (±1.3) %
  Col1a1 mRNA: 73 (±3.6) %
[5]
  HMGN1: 189%
Senescent foreskin cells
  Survival: 97.5
Senescent A549 cells; 1.1 μM
  Survival: 89%
Senescent A549 cells; 10 μM
  Survival: 90.4%
Senescent A549 cells; 30 μM
  Survival: 92.3%
Senescent A549 cells; 90 μM
  Survival: 37.2%
Senescent A549 cells; […]
  Survival: 87.8%
[6]
  Lung p16 mRNA: 72 (±5.7) %
  Col1a1 mRNA: 61 (±4.3) %
Senescent human cells; 1.1 μM
  Survival: 103.3%
Senescent human cells; 10 μM
  Survival: 104.8%
Senescent human cells; 30 μM
  Survival: 93.6%
Senescent human cells; 90 μM
  Survival: 49.9%
Senescent human cells; […]
  Survival: 97.8%
[7]
  HMGN1: 167%

## Cc1nc(-c2nc(-c3ccc(OC(F)(F)F)cc3)no2)nn1Cc1cccc(N2CCC(S(C)(=O)=O)CC2)c1 [LX-3200]
Naturally aged mice [3]
  Femur Ctsk mRNA: 68%
  Heart Sur2a mRNA: 1.4 fold
  Joint Col2a1 mRNA: 1.3 fold
  Kidney Agtr1a mRNA: 62%
  Liver IL6 mRNA: 67%
  Liver MMP3 mRNA: 71%
  Liver p16 mRNA: 77%
  Open Field Test Time in Center: 188%
  Skin Col1a1 mRNA: 1.4 Fold
  Skin SDF1 mRNA: 1.6 fold
  Muscle Mass: 0.69 g
  Fat Mass: 1.03 g
  Cataract incidence: 72%
[4]
  Liver p16 mRNA: 75 (±9.8) %
  Col1a1 mRNA: 80 (±9.6) %
[5]
  HMGN1: 305%
Senescent foreskin cells
  Survival: 54.9
Senescent A549 cells; 1.1 μM
  Survival: 94.9%
Senescent A549 cells; 10 μM
  Survival: 61.6%
Senescent A549 cells; 30 μM
  Survival: 1.6%
Senescent A549 cells; […]
  Survival: 91.7%
[6]
  Lung p16 mRNA: 76 (±5.7) %
  Col1a1 mRNA: 63 (±6.9) %
Senescent human cells; 1.1 μM
  Survival: 92.2%
Senescent human cells; 10 μM
  Survival: 14.3%
Senescent human cells; […]
  Survival: 78.6%
[7]
  HMGN1: 234%
